Measured values published in patent US20210386668A1, “Cyclodextrin for use in the treatment and prevention of late phase bronchoconstriction in allergen-induced asthma” (Universite de Liege, priority 2020, published 2021).

Tested on: mild to moderate asthmatic patients sensitized to HDM
Assay: Phase 2a proof of concept clinical trial, HDM allergen challenge (FEV1)
Format: in vivo, human
Source text: Seventeen mild to moderate asthmatics sensitized to HDM were included in a double blind crossover study comprising allergen challenges with HDM. […] These experiments show a significant effect of HPBCD inhalation on the prevention of allergen-induced FEV1 decrease during the late phase.
Clinical trial protocols have been approved by an independent ethical committee (CHU Liege—University of Liege) in accordance with GCPs, Declaration of Helsinki and European regulations (EudraCT). All participants gave written informed consent before any study-specific procedure. For the phase 1 clinical trial, 8 healthy subjects (4 women and 4 men) from 18 to 40 years were recruited and enrolled in the study at the University Hospital of Liege (Belgium). Patients were randomized and received first the placebo (NaCl 0.9%) or HPBCD at 2.5 mM and 8 days after, the opposite treatment. After 1 week, all patients received HPBCD at 15 mM. One month later, all patients received HPBCD at 15 mM during 5 consecutive days. Apyrogenic and sterile HPBCD powder was diluted with NaCl 0.9% before inhalation (8 ml) with an ultrasonic nebulizer (Devilbiss 2000). General symptoms, asthma scores (ACQ), dyspnea, chest Rx, clinical biology, ECG, vital signs, spirometry, NO, sputum (induced by NaCl 4.5%) were analyzed after treatment periods. The second clinical trial (phase 2a-proof of concept) was a double-blinded, cross-over, placebo-controlled study. 17 mild to moderate asthmatic patients were included in the study at two different sites (University Hospital of Liege and University Hospital Erasme) in Belgium. Characterization visits consisted of dyspnea symptoms recording, ECG, chest Rx, clinical biology, spirometry and vital signs analysis. PD20 (provocative dose that causes a 20% fall in FEV1 from the saline alone value) to inhaled allergen was determined. […] The PD20 of the allergen was calculated from a cumulative dose-response curve, as described previously, Cataldo et al., Matrix metalloproteinase-9, but not tissue inhibitor of matrix metalloproteinase-1, increases in the sputum from allergic asthmatic patients after allergen challenge, Chest. 2002; 122(5):1553-9. All […] received a cumulative concentration of Dermatophagoides pteronyssinus with a reactivity index of 6. After 14 days wash-out period, patients were randomly divided into two groups and received either HPBCD 15 mM or Placebo (NaCl 0.9%) by inhalation (ultrasonic nebulizer (Devilbiss 2000)) twice daily. At the end of this treatment period, lung function (FEV1) was analyzed after allergen (HDM) challenge under the supervision of experienced respiratory clinical physiologists. FEV1 was measured after allergen inhalation challenge at 5, 15, 30, 60, 120, 180, 240, 300 and 360 min. After 28 days wash-out period, patients received the opposite treatment for another 14 days and the FEV1 following allergen challenge was evaluated. All clinical parameters were examined after each treatment period. The endpoint of this proof of concept study was changes in FEV1 over 0-360 min post-allergen challenges. FEV1 in early phase (0-60 min) and late phase (180-360 min) were expressed as: area under the FEV1-versus-time curve (AUC), maximum percentage fall and average percentage fall (calculated by dividing the area under the curve of the percentage fall in FEV1 by the duration of the response period). One patient who received placebo had negative maximum FEV1 decrease and negative average percentage fall in FEV1. These negative values were truncated to 0. Patients had access to […] (salbutamol 100 μg) throughout the study as an «as needed» treatment. […]

For `CC(O)COC[C@H]1O[C@@H]2O[C@H]3[C@H](O)[C@@H](O)[C@@H](O[C@H]4[C@H](O)[C@@H](O)[C@@H](O[C@H]5[C@H](O)[C@@H](O)[C@@H](O[C@H]6[C@H](O)[C@@H](O)[C@@H](O[C@H]7[C@H](O)[C@@H](O)[C@@H](O[C@H]8[C@H](O)[C@@H](O)[C@@H](O[C@H]1[C@H](O)[C@H]2O)O[C@@H]8COCC(C)O)O[C@@H]7COCC(C)O)O[C@@H]6COCC(C)O)O[C@@H]5COCC(C)O)O[C@@H]4COCC(C)O)O[C@@H]3COCC(C)O` (stereo partly drawn) [HPBCD, 2-hydroxypropyl-beta-cyclodextrin], the “decrease in FEV1 after HDM challenge (AUC 0-360 min)” value (HPBCD 15 mM inhalation twice daily vs placebo, FIG. 5B) was “lower decrease in FEV1”, the “maximum FEV1 decrease after HDM challenge” value (HPBCD 15 mM vs placebo, FIG. 5D) was “significantly lower” and the “average percentage FEV1 decrease after HDM challenge” value (HPBCD 15 mM vs placebo, FIG. 5E) was “significantly lower”. For the same molecule, the “hematology, serum biochemistry, urinalysis, vital signs, ECG tests and chest X-ray” value (between treatment groups) was “No significant changes”, the “FEV1 decrease during the early bronchoconstriction phase” value (early phase 0-60 min, HPBCD vs placebo) was “No significant differences” and the “prevention of FEV1 decrease during the late phase reaction (AUC)” value (late phase 180-360 min, HPBCD 15 mM vs placebo, FIG. 5C) was “predominant effect”.
